Assay results published in patent US20220202771A1, “Antidepressants for the Treatment or Prevention of Memory Loss and/or Cognitive Decline or Dysfunction in Aging” (UNIVERSITY OF NORTH TEXAS HEALTH SCIENCE CENTER AT FORT …, priority 2019, published 2022).
Counter-ions that a name gives are not always drawn. Like-named read-outs stand apart in the source and are kept apart here.

Tests used:
[1] = system: individuals with a diagnosis of MCI with DepE scores >=2
Experimental: (§1) Next, the inventors conducted an investigator-initiated clinical trial (NCT02590874). […] Treatment duration was 4 months of duloxetine versus placebo. The initial dosage consisted of 30 mg/day duloxetine or placebo; after two weeks, dosage was increased to 60 mg/day. Dosage during the last two weeks of the 4-month study was reduced to 30 mg/day. Secondary endpoints of change in Repeatable Battery for the Assessment of Neuropsychological Status (RBANS) memory scores from baseline to study completion were analyzed. In this study, the inventors recruited n=16 participants with clinical diagnosis of amnestic MCI (single or multi-domain).

[2] = system: individuals with a diagnosis of MCI with elevated DepE scores; details: treatment group, follow-up after 4 months
Experimental: as §1
Fasting blood samples were collected at baseline and follow-up. Several plasma biomarkers were assessed to determine neurodegeneration over treatment duration: Neurofilament light (NfL)(FIG. 6), Tau (FIG. 5), Aβ40 (FIG. 4) and Aβ42 (FIG. 3).

[3] = system: individuals with a diagnosis of MCI with DepE scores >=2; details: 4 months duloxetine 30-60 mg/day, n=16 participants in the trial
Experimental: Treatment duration was 4 months of duloxetine versus placebo. The initial dosage consisted of 30 mg/day duloxetine or placebo; after two weeks, dosage was increased to 60 mg/day. Dosage during the last two weeks of the 4-month study was reduced to 30 mg/day. […] In this study, the inventors recruited n=16 participants with clinical diagnosis of amnestic MCI (single or multi-domain). N=14 subjects enrolled were of Mexican American ethnicity.

[4] = Baseline, amnestic MCI participants, duloxetine group before treatment
[5] = Follow-up, 4 months treatment, 30 mg/day then 60 mg/day, last two weeks 30 mg/day, *p < .05

CNCC[C@H](Oc1cccc2ccccc12)c1cccs1 [Duloxetine, N-methyl-γ-(1-naphthalenyloxy)-2-thiopropanamine hydrochloride]
RBANS Delayed Memory [1, 4]: 76.63(11.01)
RBANS Immediate Memory [1, 4]: 74.62(11.17)
RBANS Total [1, 4]: 72.37(5.12)
RBANS Delayed Memory [1, 5]: 91.50(6.98)*
RBANS Immediate Memory [1, 5]: 88.75(11.43)*
RBANS Total [1, 5]: 80.37(5.31)*
effect on memory abilities ([1]; MCI patients elevated in the depressive endophenotype, summary statement of the clinical trial): significant benefit
change in RBANS Delayed Memory scores over treatment duration ([1]; treatment group, 4 months, no significant change in the placebo group (p<0.05), FIG. 2): significant improvement
markers of neurodegeneration (NfL, Tau, Aβ40, Aβ42) at follow-up ([2]; MCI cases with elevated DepE scores): primarily stable
plasma Aβ42, baseline versus follow-up ([2]; placebo group showed significant increase, FIG. 3): no significant differences
plasma Aβ40, baseline versus follow-up ([2]; placebo group showed significant increase, FIG. 4): no significant differences
Serious Adverse Effects (SAEs) [3]: no Serious Adverse Effects (SAEs) were identified
